Molecular target: T1, PAN domain endonuclease (Influenza A virus, UniProt C3W5S0)
T1 construct: The PAN domain of 2009 pandemic H1N1 virus polymerase (residues 1-204) has now been crystallized
Experiment: Endonuclease inhibition assay (FRET, FAM/MGBNFQ TaqMan-like probe cleavage by PAN)
Type: biochemical, influenza A (2009 pandemic H1N1 virus)
Conditions: 25 nM endonuclease, 50 nM probe, 37 degrees Celsius, fluorescence ex 488 nm / em 518 nm
Text: A TaqMan-like oligonucleotide was used containing a 6-carboxy-fluorescein (FAM) fluorophore at the 5′-end followed by 19 nucleotides and a minor groove binding non-fluorescent quencher (MGBNFQ, Applied Biosystems) at the 3′-end. When excited by light at a wavelength of 488 nm, MGBNFQ quenches the fluorescence of FAM via fluorescence resonance energy transfer. If the endonuclease cleaves the oligonucleotide, the quencher is no longer coupled to the fluorophore, and therefore, FAM fluoresces. This assay can be performed in a high-throughput (e.g. 96 well plate) format. The assay can be used to evaluate the inhibitory characteristics of compounds that are found to bind PAN and to screen libraries of drug-like compounds. The assay uses the probe 6FAM-[…]-MGBNFQ (SEQ ID NO: 1)
The assay can be performed in a 40 μl reaction volume with 50 mM Tris pH 7.5, 50 mM NaCl, 1 mM MgSO4, 0.5 mM MnSO4, 1 mM DTT, 0.75 mM CHAPS, 50 nM probe, and 25 nM endonuclease.
The reaction mixture is set up as a master mix with the buffer, probe, and protein on ice. The inhibitor is then added to a maximum DMSO concentration of 2.5% (v/v) and serial dilutions are made on ice. Varioskan Fluorometer (Thermo Scientific), set to an excitation of 488 nm and emission of 518 nm, is used to measure the fluorescence of the samples at 37 degrees Celsius. Fluorescence is measured at various time points (5, 120, and 240 minutes) during the 37 degrees Celsius incubation. Activity/inhibition is calculated based on the change in fluorescence over time using Prism Graphpad non-linear regression analysis.

In order of falling IC50:
1. Oc1cc(-c2ccc(-c3nnn[nH]3)cc2)c(-c2ccc(-c3nnn[nH]3)cc2)cc1O [Example 7]  847 nM
2. O=[N+]([O-])c1c(O)c(O)cc(-c2ccc(F)cc2)c1-c1ccc(F)cc1 [Example 2]  434 nM
3. Oc1cc(-c2ccc(F)cc2)c(-c2ccc(-c3nnn[nH]3)cc2)cc1O [Example 6]  425 nM
4. N#Cc1ccc(-c2cc(O)c(O)cc2-c2ccc(C#N)cc2)cc1 [Example 3, 4′,5′-dihydroxy-[1,1′:2′,1″-terphenyl]-4,4″-dicarbonitrile]  395 nM
5. Oc1cc(-c2ccc(F)cc2)c(-c2ccc(F)cc2)cc1O [Example 1]  390 nM
6. N#Cc1ccc(-c2cc(O)c(O)cc2-c2ccc(F)cc2)cc1 [Example 5, 4″-fluoro-4′,5′-dihydroxy-[1,1′:2′,1″-terphenyl]-4-carbonitrile]  290 nM
7. N#Cc1ccc(-c2cc(O)c(O)c([N+](=O)[O-])c2-c2ccc(C#N)cc2)cc1 [Example 4]  194 nM

From patent US9695135B2, “Therapeutic catechols” (priority 2014, dated 2017)
